Measured values published in US11932850B2, “Cancer chemoprevention with STAT3 blockers” (Jill M. Siegfried, LLC, priority 2018, dated 2024).

Key:
[1] = test system: c-Myc in H1975-derived tumors; assay: c-Myc expression in H1975 xenograft tumors (Western blot); type: in vivo, nude mice
Experimental: FIGS. 7C and 7D show c-Myc is suppressed after CS3D treatment in vivo. At the end of the treatments, tumors were harvested, whole cell lysates were prepared and RNA extracted for target gene analysis by Western blotting and RT-qPCR GAPDH protein was used as internal loading control for immunoblotting. CS3D treated tumors (C4, C5, and C6) from separate animals show a decrease in c-Myc expression level relative to the CS3M-treated group (C1, C2, and C3) in 201T. […] Data are shown as mean+/−SEM.
To determine how CS3D blocks NSCLC growth, Western blot, qRT-PCR, and immunohistochemical analysis were performed to determine expression of c-Myc in residual tumors. These analyses identified a substantial downregulation of c-Myc protein (FIGS. 7C and 7D) and mRNA levels (FIG. 7E) in individual CS3D-treated tumors relative to CS3M-treated tumors in both 201T and H1975 xenografts. Some variability in protein levels among individual xenografts was observed (FIGS. 7C and 7D); the densitometry units for c-Myc protein after normalizing for GAPDH levels ranged from 0.11-0.16 units for CS3D-treated xenografts and 0.25-0.46 units for CS3M-treated tumors in H1975. Similarly, in 201T-derived tumors these measurements ranged from 0.015 to 0.51 units for CS3D and 0.28 to 0.97 units for CS3M. Even with this variability, the effect across the groups in both cell lines was significant (P<0.05 for H1975 and P<0.042 for 201T xenografts), with a mean decrease of 65% and 70%, respectively.

NSCLC cell lines = conditions: each NSCLC cell line, regardless of EGFR or KRAS mutation status; one 4-hr transfection
Experimental: NSCLC cell lines (201T and H1975) were transfected with CS3D or CS3M (cyclic STAT3 mutant decoy) at concentrations ranging from 0 nM to 600 nM. Using MTS assays, cell viabilities were assessed 72 hours later. Three independent experiments were performed, using 24-well plates and 4 wells/concentration.
To determine the concentration of CS3D required to inhibit cell viability, increasing concentrations of CS3D was transfected, and after 72 hours, MTS assays were used to assess cell viability. Data were normalized to cells treated with lipofectamine alone.
Dose-response experiments assessing the relative number of metabolically active viable cells were performed by transfecting cells with increasing concentrations of CS3D or CS3M, followed by performance of MTS assays. After 72 hours, 5 mg/ml of MTS reagent was added in the plates and incubated 37° C. for 20 minutes. The plates were then read at 490 nm in a Synergy microplate reader (BioTek, Winooski, Vermont) using Gen5 2.05 software. Data obtained following treatment with C3SD or CS3M were normalized to treatment with lipofectamine alone. […] To assess induction of apoptosis in response to CS3D, H1975 and 201T cells were transfected with 100 nM of CS3M or CS3D. […]

201T cells = assay: Soft agar colony forming assay, 201T; type: cell-based, human
Text: 1 hr after treatment with EGF.
Following the transfection protocol described above, cells transfected with either CS3D or CS3M were detached from the plate using Trypsin-EDTA (Life Technologies) and seeded at a density of 2×10^4 cells/well (in a 6-well plate) in soft agar to determine the ability of cells to grow in an anchorage-independent setting. Sea Plaque Agarose (Lonza—Rockland, Maine) was used to prepare 0.8% base agarose layer and a 0.48% upper agarose layer containing the transfected cells. 1 ml of appropriate growth media was added into each well and incubated at growth conditions of 37° C. with 5% CO2. Media was replaced every 3-4 days and colony formation was monitored. After 15-20 days, the media was aspirated, and wells were incubated with crystal violet in 10% formalin for 1 h. Using a dissecting scope, colonies were photographed in a 6-well plate (with 4 quadrants/well) using ImageJ software analysis to automatically count colonies, using 35 pixels as a cut-off.

[2] = test system: Myc and Bcl-xL mRNA in NSCLC cells; conditions: 300 nM one transfection, 10 ng/ml EGF, 1 hr after EGF
[3] = target: pSTAT3 and total STAT3 in H1975 cells (Homo sapiens, UniProt P40763)
Chain of pSTAT3 and total STAT3 in H1975 cells (P40763 2-770 limits assumed): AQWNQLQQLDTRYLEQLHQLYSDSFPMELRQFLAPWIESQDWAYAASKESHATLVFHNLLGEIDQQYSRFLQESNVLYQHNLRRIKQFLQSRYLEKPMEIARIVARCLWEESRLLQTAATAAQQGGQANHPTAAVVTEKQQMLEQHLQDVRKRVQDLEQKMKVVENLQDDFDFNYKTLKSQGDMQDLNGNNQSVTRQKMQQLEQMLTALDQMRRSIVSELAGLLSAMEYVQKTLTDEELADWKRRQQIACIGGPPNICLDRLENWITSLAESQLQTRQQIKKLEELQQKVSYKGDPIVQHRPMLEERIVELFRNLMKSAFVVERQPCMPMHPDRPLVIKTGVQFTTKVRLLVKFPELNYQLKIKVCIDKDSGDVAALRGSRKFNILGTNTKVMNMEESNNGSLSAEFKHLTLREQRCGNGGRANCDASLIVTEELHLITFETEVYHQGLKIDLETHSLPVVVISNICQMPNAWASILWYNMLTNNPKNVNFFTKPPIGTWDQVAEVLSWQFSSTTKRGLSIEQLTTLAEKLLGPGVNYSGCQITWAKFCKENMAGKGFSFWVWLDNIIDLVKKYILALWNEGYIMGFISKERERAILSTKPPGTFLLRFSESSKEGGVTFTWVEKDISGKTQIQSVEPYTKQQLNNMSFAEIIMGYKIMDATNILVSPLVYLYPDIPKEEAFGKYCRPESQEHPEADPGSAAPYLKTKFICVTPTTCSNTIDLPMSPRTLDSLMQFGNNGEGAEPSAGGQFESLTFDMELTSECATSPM

[4] = test system: cleaved caspase-3 in H1975 xenografts; assay: IHC of cleaved caspase-3 in H1975 xenografts at end of treatment; type: in vivo, nude mice; conditions: after last day of treatment (day 14)
Text: For mRNA levels in tumor lysates, CS3D produced a 60-70% reduction of c-Myc gene expression relative to GAPDH compared to CS3M (FIG. 7E). […] Some cleaved caspase 3 staining was localized in nuclei, where caspase-3 is known to be active. Some caspase 3 staining was also evident in fibroblasts.
Immunohistochemical analysis: Tumors were excised for immunohistochemical (IHC) staining; 5-μm (micron) sections were cut from formalin-fixed paraffin-embedded tissue blocks, deparaffinized and rehydrated using successive washes of xylene followed by ethanol. Antigen retrieval was performed in a microwave oven (for 20 minutes) in an unmasking solution containing sodium citrate buffer followed by peroxidase blocking in 3% hydrogen peroxide. The sections were incubated in ABC blocking buffer (Vector laboratories Inc, Burlingame, California) for 1 hour at room temperature. Sections were then stained with H&E (hematoxylin and eosin) or subjected to sequential incubations with different primary antibodies and peroxidase-conjugated goat anti-rabbit secondary antibodies. […] Staining was graded as low (<30% positive cells per field, scored as 1), moderate (30-60% positive cells per field, scored as 2) or high (>60% positive cells per field, scored as 3).

[5] = H1975, IL-6 50 ng/mL 1 hr, compared to CS3M or lipofectamine alone

## CS3D (DNA GATTTACGGGAAATGCSCATTTCCC; cyclic decoy with two hexaethylene glycol linkers, further chemistry not given here)
[1]; H1975 xenograft tumors, range among individual tumors
  c-Myc protein densitometry normalized for GAPDH: 0.11-0.16 units
[1]; H1975 xenografts, CS3D vs CS3M
  mean decrease of c-Myc protein: 65%
NSCLC cell lines
  IC50: ~0.3 µM
201T cells; 300 nM single transfection, at 20 days, 201T, compared to CS3M
  disruption of anchorage-independent growth: 50%
201T cells; one transfection, 201T (FIG. 4A)
  reduction of colony formation in soft agar: 55%
[2]
  reduction of Bcl-Xl mRNA expression in response to EGF: ≥ 60%
  reduction of c-Myc mRNA expression in response to EGF: ≥ 60%
[3]; [5]
  reduction in nuclear pSTAT3: 35%
  reduction in nuclear total STAT3: 35%
[3]; H1975, IL-6 stimulated
  effect on cytoplasmic pool of total STAT3: little effect
[4]
  fields scoring high level of cleaved caspase-3: 83%
